Results published in ChEMBL document CHEMBL1201862, “PubChem BioAssay data set” (2004).
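Interpolation was linear, between the two tested concentrations surrounding the appropriate level; five concentrations were tested over 48 hours in 96-well plates. Here, GI50 denotes the concentration required for 50% inhibition of growth.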 Calls of active or inactive are those of the source. Rule as the data show it: active = GI50 up to about 1.1 µM and inactive = higher.

Tests used:
Assay in all cases: NCI anticancer screen, dose series, 48 h
ACHN = test system: ACHN
CAKI-1 = test system: CAKI-1
COLO 205 = test system: COLO 205
HL-60 = test system: HL-60
HOP-92 = test system: HOP-92
KM12 = test system: KM12
LOX IMVI = test system: LOX IMVI
M19-MEL = test system: M19-MEL
Malme-3M = test system: Malme-3M
OVCAR-5 = test system: OVCAR-5
SF-295 = test system: SF-295
SK-MEL-2 = test system: SK-MEL-2
SW-620 = test system: SW-620
U-251 = test system: U-251
NCI-H226 = test system: NCI-H226
DU-145 = test system: DU-145
MDA-MB-231 = test system: MDA-MB-231
MDA-MB-435 = test system: MDA-MB-435
SR = test system: SR
T47D = test system: T47D

Measured: GI50

NS(=O)(=O)c1ccc(NC(=O)c2cccc3c(Nc4ccc(S(N)(=O)=O)cc4)c4ccccc4nc23)cc1
inactive: ACHN > 100 µM | CAKI-1 38.2 µM | COLO 205 54.5 µM | HL-60 28.6 µM | HOP-92 33.8 µM | KM12 4.47 µM | LOX IMVI 5.55 µM | M19-MEL 21.4 µM | Malme-3M 43.9 µM | OVCAR-5 > 100 µM | SF-295 31.6 µM | SK-MEL-2 20 µM | SW-620 29.4 µM | U-251 21.2 µM

Cc1nn(C(=O)CC(=O)Nc2ccc(Cl)cc2)c(C)c1/N=N/c1ccccc1C(=O)O
inactive: CAKI-1 > 100 µM | COLO 205 > 100 µM | HL-60 > 100 µM | KM12 > 100 µM | LOX IMVI > 100 µM | M19-MEL > 100 µM | Malme-3M > 100 µM | OVCAR-5 > 100 µM | SF-295 > 100 µM | SK-MEL-2 > 100 µM | SW-620 > 100 µM | U-251 > 100 µM

CCO/C([O-])=C(\C(=O)c1ccccc1)[n+]1c(C)n(C)c2ccccc21
inactive: CAKI-1 > 100 µM | COLO 205 > 100 µM | HL-60 > 100 µM | KM12 > 100 µM | LOX IMVI > 100 µM | M19-MEL > 100 µM | Malme-3M > 100 µM | NCI-H226 > 100 µM | OVCAR-5 > 100 µM | SF-295 > 100 µM | SK-MEL-2 > 100 µM | SW-620 > 100 µM | U-251 > 100 µM

CC(=O)[C@H]1CC[C@H]2[C@@H]3CCC4=CC(=O)CC[C@]4(C)[C@H]3CC[C@]12C [PROGESTERONE]
inactive: ACHN 26 µM | CAKI-1 28.5 µM | COLO 205 16 µM | DU-145 28.1 µM | HL-60 9.98 µM | HOP-92 25.7 µM | KM12 16.7 µM | LOX IMVI 17.5 µM | MDA-MB-231 17.2 µM | MDA-MB-435 19.8 µM | Malme-3M 17.3 µM | NCI-H226 11.7 µM | OVCAR-5 19.5 µM | SF-295 25.9 µM | SK-MEL-2 20 µM | SR > 100 µM | SW-620 31 µM | T47D 20.1 µM | U-251 17.3 µM

O=C1NC(=O)[C@@]2(CC[C@@H](O)C2)c2ccncc21 [SESBANINE]
inactive: ACHN > 100 µM | CAKI-1 > 100 µM | COLO 205 > 100 µM | DU-145 > 100 µM | HL-60 > 100 µM | HOP-92 > 100 µM | KM12 > 100 µM | LOX IMVI > 100 µM | MDA-MB-231 > 100 µM | MDA-MB-435 > 100 µM | Malme-3M > 100 µM | NCI-H226 > 100 µM | OVCAR-5 > 100 µM | SF-295 > 10 µM | SK-MEL-2 > 100 µM | SR > 100 µM | SW-620 > 100 µM | T47D > 100 µM | U-251 > 100 µM
